Data reported in patent US20240075050A1, “Methods and Compositions for Treating Leucine Rich Repeat Kinase 2 (LRRK2)-Associated Disorder or Condition” (University of Connecticut, priority 2022, published 2024).

Key:
Type in all cases: cell-based, human
LRRK2 [1] = assay: Endogenous LRRK2 levels in SH-SY5Y cells, Western blot
[2] = test system: GBA, α-Synuclein, VPS35, Parkin, PINK, and DJ-1; assay: Protein levels of other PD-associated proteins in HEK 293T cells, Western blot; conditions: tagged proteins, 1 mM, 48 hours
Description: FIGS. 2A-2T depicts that AICAr, the precursor of ATIC substrate, regulates LRRK2 expression levels and neuronal toxicity. FIGS. 2A and 2B depict the overexpressed LRRK2 levels in HEK 293T cells upon AICAr treatment. HEK293 cells were transfected with MYC-LRRK2 and treated with or without 1 mM AICAr for 48 hours. LRRK2 levels were analyzed by Western blot. FIGS. 2C and 2D depict the LRRK2 expression levels in SH-SY5Y cells upon AICAr treatment. Human neuroblastoma SH-SY5Y cells were treated with or without 1 mM AICAr for 48 hours. LRRK2 expression levels were analyzed by Western blot. FIGS. 2E and 2F depict the overexpressed (3-glucocerebrosidase (GCase) levels upon AICAr treatment. HEK 293T cells were transfected with V5-GCase and treated with or without 1 mM AICAr for 48 hours. GCase levels were analyzed by Western blot. FIGS. 2G-2N depict the LRRK2 expression levels in primary neurons (FIG. 2G and FIG. 2H), microglia (FIG. 2I and FIG. 2J), astrocytes (FIG. 2K and FIG. 2L) and human fibroblasts (FIG. 2M and FIG. 2N) upon AICAr treatment. Mouse primary cortical neurons, microglia, astrocytes or human fibroblasts from a health control were treated with or without 1 mM AICAr for 48 hours. LRRK2 expression levels were analyzed by Western blot. […] LRRK2 expression levels were analyzed by Western blot. […] Images were quantified by ImageJ software. […]

LRRK2 [3] = assay: Overexpressed LRRK2 levels in HEK 293T cells, Western blot
Description: FIGS. 2A-2T depicts that AICAr, the precursor of ATIC substrate, regulates LRRK2 expression levels and neuronal toxicity. FIGS. 2A and 2B depict the overexpressed LRRK2 levels in HEK 293T cells upon AICAr treatment. HEK293 cells were transfected with MYC-LRRK2 and treated with or without 1 mM AICAr for 48 hours. LRRK2 levels were analyzed by Western blot. FIGS. 2C and 2D depict the LRRK2 expression levels in SH-SY5Y cells upon AICAr treatment. Human neuroblastoma SH-SY5Y cells were treated with or without 1 mM AICAr for 48 hours. LRRK2 expression levels were analyzed by Western blot. FIGS. 2E and 2F depict the overexpressed (3-glucocerebrosidase (GCase) levels upon AICAr treatment. HEK 293T cells were transfected with V5-GCase and treated with or without 1 mM AICAr for 48 hours. GCase levels were analyzed by Western blot. FIGS. 2G-2N depict the LRRK2 expression levels in primary neurons (FIG. 2G and FIG. 2H), microglia (FIG. 2I and FIG. 2J), astrocytes (FIG. 2K and FIG. 2L) and human fibroblasts (FIG. 2M and FIG. 2N) upon AICAr treatment. Mouse primary cortical neurons, microglia, astrocytes or human fibroblasts from a health control were treated with or without 1 mM AICAr for 48 hours. LRRK2 expression levels were analyzed by Western blot. FIGS. 2O and 2P depict the overexpressed LRRK2 WT and pathogenic mutant levels upon AICAr treatment. HEK 293T cells were transfected with MYC-LRRK2 WT, R1441C (RC), R1441G (RG), Y1699C (YC), G2019S (GS) or I2020T (IT) and treated with or without 1 mM AICAr for 48 hours. LRRK2 expression levels were analyzed by Western blot. FIGS. 2Q and 2R depict the LRRK2 expression levels in mouse striatum upon AICAr treatment. AICAr (72 μg/day/animal) or saline (used as a control) was injected into mouse striatum via osmotic pumps. One day after injection, striatal tissues near the injection sites were collected and LRRK2 expression levels were analyzed by Western blot. Images were quantified by ImageJ software. Data are mean±SEM from total six mice (three male mice and three female mice). ****p<0.0001 by Student's t tests. […] FIG. 2T depicts the quantification of neuronal viability. Bars indicate the viability (n>100) for each transfection condition expressed as a percent of control neurons (eGFP with pcDNA3.1 empty vector). Data represent the mean±SEM from three independent experiments with n>100 cells quantified in each experiment. *p<0.05, ***p<0.001, ****p<0.0001 by one-way ANOVA followed by a Tukey's post hoc test.
FIGS. 3A-3J depict that AICAr regulates LRRK2 at mRNA level and through a specific region. […] LRRK2 expression levels were analyzed by Western blot. Images were quantified by ImageJ software. […] LRRK2 and GBA mRNA levels were analyzed by real-time PCR. […] LRRK2 mRNA levels were analyzed by real-time PCR. […]

NC(=O)c1ncn([C@@H]2O[C@H](CO)[C@@H](O)[C@H]2O)c1N [AICAr, 5-aminoimidazole-4-carboxamide riboside]
LRRK2 level, time and dose course (LRRK2 [1]; 1 mM, 24h-48h treatment): suppressed LRRK2 level dramatically | LRRK2 protein levels in AUF1-KO cells (LRRK2 [1]; SH-SY5Y AUF1-KO cells, 1 mM, 48 hours): largely attenuated effects | AICAr effects on LRRK2 in AUF1 KO cells with stable AUF1-GFP expression (LRRK2 [1]; SH-SY5Y AUF1 KO, AUF1-GFP expressed back, 1 mM, 48 hours): significantly rescued AICAr effects | effects on LRRK2 protein levels in WT versus AMPK KO cell line (LRRK2 [1]; SH-SY5Y WT and AMPK KO, 1 mM, 48 hours): similar | endogenous LRRK2 levels (LRRK2 [1]; SH-SY5Y cells, 1 mM, 48 hours): decreased | LRRK2 protein levels despite MG132 or CQ (LRRK2 [1]; SH-SY5Y, 1 mM AICAr with 0.35 μM MG132 or 5 μM CQ, 48 hours): still largely reduced | levels of other PD-associated proteins (GBA, α-Synuclein, VPS35, Parkin, PINK, DJ-1) [2]: no changes | native LRRK2 cDNA expression (LRRK2 [3]; HEK 293T, Flag-LRRK2 native cDNA, 1 mM, 48 hours): great suppress | expression of synthesized LRRK2 cDNA with synonymous codons (LRRK2 [3]; HEK 293T, Flag-LRRK2 synthesized cDNA, 1 mM, 48 hours): no obvious effects | overexpressed LRRK2 levels (LRRK2 [3]; HEK293 cells transfected with MYC-LRRK2, 1 mM, 48 hours): decreased | chimeric LRRK2 cDNA expression (LRRK2 [3]; synthesized cDNA with region 2221-3927 bp replaced by native sequence): great suppression
